In one assay the target is HiBiT tagged CK1α (Homo sapiens, UniProt P48729+Q96SW2). Briefly: CK1α degradation assay (HiBiT assay). Format: cell-based. The note with it: 20 hours; for Dmax: HT-1080, HT-1080 cells; for Dmax / HiBiT CK1α: Dmax: maximum CK1α degradation; for DC50 / HiBiT CK1α: Dmax: HT-1080 cells; for DC50: concentration at 50% CK1α degradation. The method in brief: (§1)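 HT-1080 cells stably expressing wild-type CRBN, GSPT1A(1-138)/G575N and HiBiT-tagged CK1α or GSPT1, ~10,000/well, treated with compound from 3.162×10^-4 μM to 10 μM (3.16-fold steps). HiBiT luminescence normalized to DMSO as percent of control.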

The target in a further assay is HiBiT tagged GSPT1 (Homo sapiens, UniProt P15170+Q96SW2). Briefly: GSPT1 degradation assay (HiBiT assay). The note with it: 20 hours, maximum GSPT1 degradation; for Dmax: HT-1080, HT-1080 cells; for HiBiT GSPT1: Dmax: HT-1080 cells. Format: cell-based. The method in brief: as §1
Chain of HiBiT tagged GSPT1 (P15170 whole entry): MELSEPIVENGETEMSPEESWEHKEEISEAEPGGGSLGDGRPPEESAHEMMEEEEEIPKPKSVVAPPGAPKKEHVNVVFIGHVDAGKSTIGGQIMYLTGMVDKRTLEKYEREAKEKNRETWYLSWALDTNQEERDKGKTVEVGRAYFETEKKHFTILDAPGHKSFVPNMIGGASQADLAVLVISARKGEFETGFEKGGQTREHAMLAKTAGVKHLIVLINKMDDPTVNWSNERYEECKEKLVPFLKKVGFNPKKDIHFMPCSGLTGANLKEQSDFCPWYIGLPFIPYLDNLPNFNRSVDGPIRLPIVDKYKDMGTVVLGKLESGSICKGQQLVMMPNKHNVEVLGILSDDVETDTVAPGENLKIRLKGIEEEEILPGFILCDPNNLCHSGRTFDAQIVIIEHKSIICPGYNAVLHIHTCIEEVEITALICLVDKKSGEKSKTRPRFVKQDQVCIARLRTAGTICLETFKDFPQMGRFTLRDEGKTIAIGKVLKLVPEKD
Chain of HiBiT tagged GSPT1 (Q96SW2 whole entry): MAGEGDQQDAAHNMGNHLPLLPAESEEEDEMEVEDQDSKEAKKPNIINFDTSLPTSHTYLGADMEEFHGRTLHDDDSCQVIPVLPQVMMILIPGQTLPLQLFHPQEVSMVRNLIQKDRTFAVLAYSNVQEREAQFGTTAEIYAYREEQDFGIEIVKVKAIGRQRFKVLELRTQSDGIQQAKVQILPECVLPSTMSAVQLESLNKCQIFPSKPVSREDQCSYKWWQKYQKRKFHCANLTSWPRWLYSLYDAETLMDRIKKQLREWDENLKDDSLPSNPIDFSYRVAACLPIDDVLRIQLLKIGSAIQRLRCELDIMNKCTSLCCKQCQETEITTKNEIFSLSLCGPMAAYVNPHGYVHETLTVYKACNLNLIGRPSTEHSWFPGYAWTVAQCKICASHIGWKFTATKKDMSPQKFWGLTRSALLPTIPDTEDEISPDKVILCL
Chain of HiBiT tagged GSPT1 (Q16531 whole entry partner): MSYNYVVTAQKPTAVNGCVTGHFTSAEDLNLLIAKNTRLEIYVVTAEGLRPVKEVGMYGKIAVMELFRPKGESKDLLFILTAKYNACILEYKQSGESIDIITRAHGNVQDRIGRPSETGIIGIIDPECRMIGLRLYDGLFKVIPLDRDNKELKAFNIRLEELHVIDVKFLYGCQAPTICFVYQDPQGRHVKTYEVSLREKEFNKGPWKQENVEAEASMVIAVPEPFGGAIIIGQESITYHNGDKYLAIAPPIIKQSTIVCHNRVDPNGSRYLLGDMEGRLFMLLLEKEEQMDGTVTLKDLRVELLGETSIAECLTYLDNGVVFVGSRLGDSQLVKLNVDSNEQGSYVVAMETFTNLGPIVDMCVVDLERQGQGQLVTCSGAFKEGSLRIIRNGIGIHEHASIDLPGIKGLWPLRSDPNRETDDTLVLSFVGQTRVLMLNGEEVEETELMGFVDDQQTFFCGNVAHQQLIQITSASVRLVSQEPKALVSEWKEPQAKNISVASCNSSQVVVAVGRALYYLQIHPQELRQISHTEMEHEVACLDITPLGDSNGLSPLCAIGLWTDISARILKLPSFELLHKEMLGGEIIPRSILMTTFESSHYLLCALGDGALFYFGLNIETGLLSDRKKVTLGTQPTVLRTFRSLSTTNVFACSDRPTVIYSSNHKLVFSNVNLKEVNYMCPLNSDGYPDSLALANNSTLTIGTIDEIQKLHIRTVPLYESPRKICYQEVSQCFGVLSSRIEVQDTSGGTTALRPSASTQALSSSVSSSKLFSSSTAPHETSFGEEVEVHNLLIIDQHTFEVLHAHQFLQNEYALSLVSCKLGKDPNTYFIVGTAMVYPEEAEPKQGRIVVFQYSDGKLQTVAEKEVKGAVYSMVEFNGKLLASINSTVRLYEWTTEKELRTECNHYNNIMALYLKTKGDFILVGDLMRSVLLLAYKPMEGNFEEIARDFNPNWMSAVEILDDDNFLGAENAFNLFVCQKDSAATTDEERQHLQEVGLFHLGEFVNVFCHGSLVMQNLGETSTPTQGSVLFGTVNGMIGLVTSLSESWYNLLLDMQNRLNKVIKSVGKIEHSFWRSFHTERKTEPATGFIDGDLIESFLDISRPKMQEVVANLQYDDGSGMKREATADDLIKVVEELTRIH

Chain of HiBiT tagged CK1α (P48729 whole entry): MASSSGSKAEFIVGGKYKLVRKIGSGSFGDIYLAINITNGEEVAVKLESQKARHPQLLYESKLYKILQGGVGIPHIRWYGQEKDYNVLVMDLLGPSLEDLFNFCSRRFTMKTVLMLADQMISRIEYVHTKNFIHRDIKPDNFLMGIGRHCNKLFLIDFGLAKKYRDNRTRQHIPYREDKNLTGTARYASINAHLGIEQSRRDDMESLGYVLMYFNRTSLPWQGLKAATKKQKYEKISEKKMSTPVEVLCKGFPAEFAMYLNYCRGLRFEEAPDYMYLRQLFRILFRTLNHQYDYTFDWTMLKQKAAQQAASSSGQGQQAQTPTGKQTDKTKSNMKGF
Chain of HiBiT tagged CK1α (Q96SW2 whole entry): as the sequence (Q96SW2 whole entry) above
Chain of HiBiT tagged CK1α (Q16531 whole entry partner): as the sequence (Q16531 whole entry partner) above

Turning to `O=C1CCC(N2Cc3cc(C(=O)N[C@@H](c4cccc(Cl)c4)C4CC4)ccc3C2=O)C(=O)N1` (stereo in doubt) [Compound 27, N-((*R)-(3-chlorophenyl)(cyclopropyl)methyl)-2-(2,6-dioxopiperidin-3-yl)-1-oxoisoindoline-5-carboxamide], the Dmax was determined as 59.3% on HiBiT tagged CK1α and 40.3% at HiBiT tagged GSPT1. For the same molecule, the DC50 at HiBiT tagged CK1α came out at 345 nM.

On HiBiT tagged CK1α, `O=C1CCC(N2Cc3cc(C(=O)N[C@H](c4ccc(F)cc4Cl)C4CC4)ccc3C2=O)C(=O)N1` (stereo in doubt) [Compound 13, N-((*S)-(2-chloro-4-fluorophenyl)(cyclopropyl)-yl)methyl)-2-(2,6-dioxopiperidin-3-yl)-1-oxoisoindoline-5-carboxamide] returned a Dmax of 65.9% and a DC50 of 293 nM. For the same molecule, the Dmax on HiBiT tagged GSPT1 was 37%.

Take `O=C1CCC(N2Cc3cc(C(=O)N[C@@H](c4ccc(F)cc4)C4CCC4)ccc3C2=O)C(=O)N1` (stereo in doubt) [Compound 75, N-((*R)-cyclobutyl(4-fluorophenyl)methyl)-2-(2,6-dioxopiperidin-3-yl)-1-oxoisoindoline-5-carboxamide]: at HiBiT tagged CK1α, the greatest degradation seen (Dmax) stood at 50.4% and it took 3880 nM to reach half-maximal degradation (DC50). This molecule also showed a Dmax on HiBiT tagged GSPT1 of 24.1%.

On to `O=C1CC[C@@H](N2Cc3cc(C(=O)N[C@H](c4ccc(F)cc4Cl)C4CCC4)ccc3C2=O)C(=O)N1` (racemic) [Compound 50, N-((*S)-(2-chloro-4-fluorophenyl)(cyclobutyl)methyl)-2-((*R)-2,6-dioxopiperidin-3-yl)-1-oxoisoindoline-5-carboxamide], for which, on HiBiT tagged CK1α, the maximal degradation (Dmax) is 63.1% and the DC50 was 237 nM. Moreover, the Dmax at HiBiT tagged GSPT1 was 42.7%.

On HiBiT tagged CK1α, `O=C1CCC(N2Cc3cc(C(=O)NC(c4c(F)cccc4Cl)C4CC4)ccc3C2=O)C(=O)N1` (stereo not shown) [Compound 45, N-((2-chloro-6-fluorophenyl)(cyclopropyl)methyl)-2-(2,6-dioxopiperidin-3-yl)-1-oxoisoindoline-5-carboxamide] yielded a Dmax of 73.8% and a DC50 of 57.8 nM. This molecule gave a Dmax on HiBiT tagged GSPT1 of 42.4%.

As to `O=C1CC[C@@H](N2Cc3cc(C(=O)N[C@H](c4ccc(Cl)cc4F)C4CCC4)ccc3C2=O)C(=O)N1` (racemic) [Compound 56, N-((*S)-(4-chloro-2-fluorophenyl)(cyclobutyl)methyl)-2-((*R)-2,6-dioxopiperidin-3-yl)-1-oxoisoindoline-5-carboxamide], on HiBiT tagged CK1α, the DC50 was found to be 93.7 nM and the “HiBiT CK1α: Dmax” value came to 63.6%. In addition, the “HiBiT GSPT1: Dmax” value on HiBiT tagged GSPT1 is on record as 15.3%.

In the case of `O=C1CCC(N2Cc3cc(C(=O)N[C@@H](c4c(F)cccc4Cl)C4CCC4)ccc3C2=O)C(=O)N1` (stereo in doubt) [Compound 70, N-((*R)-(2-chloro-6-fluorophenyl)(cyclobutyl)methyl)-2-(2,6-dioxopiperidin-3-yl)-1-oxoisoindoline-5-carboxamide], on HiBiT tagged CK1α, half-maximal degradation (DC50) was put at 50.3 nM and the “HiBiT CK1α: Dmax” value came out at 73.9%. Further, the “HiBiT GSPT1: Dmax” value on HiBiT tagged GSPT1 is on record as 58%.

`O=C1CCC(N2Cc3cc(C(=O)N[C@@H](c4c(F)cccc4F)C4CCC4)ccc3C2=O)C(=O)N1` (stereo in doubt) [Compound 66, N-((*R)-cyclobutyl(2,6-difluorophenyl)methyl)-2-(2,6-dioxopiperidin-3-yl)-1-oxoisoindoline-5-carboxamide]: the Dmax at HiBiT tagged CK1α came out at 67.9%; on HiBiT tagged GSPT1 it was 55.3%. Further, half-maximal degradation on HiBiT tagged CK1α (DC50) was put at 118 nM.

On HiBiT tagged CK1α, `COc1ccccc1C(NC(=O)c1ccc2c(c1)CN(C1CCC(=O)NC1=O)C2=O)C1CC1` (stereo not shown) [Compound 15, N-(cyclopropyl(2-methoxyphenyl)methyl)-2-(2,6-dioxopiperidin-3-yl)-1-oxoisoindoline-5-carboxamide] gave a Dmax of 73.2% and a DC50 of 66.6 nM. The molecule also registered a Dmax at HiBiT tagged GSPT1 of 24.5%.

At HiBiT tagged CK1α, `O=C1CCC(N2Cc3cc(C(=O)NC(c4cccc(F)c4Cl)C4CC4)ccc3C2=O)C(=O)N1` (stereo not shown) [Compound 43, N-((2-chloro-3-fluorophenyl)(cyclopropyl)methyl)-2-(2,6-dioxopiperidin-3-yl)-1-oxoisoindoline-5-carboxamide] came in with a maximal degradation (Dmax) of 69.8% and a DC50 of 49.6 nM. Besides, the greatest degradation seen (Dmax) at HiBiT tagged GSPT1 was found to be 58.2%.

Take `O=C1CCC(N2Cc3cc(C(=O)N[C@H](c4ccccc4Cl)C4CC4)ccc3C2=O)C(=O)N1` (stereo in doubt) [Compound 12, N-((*S)-(2-chlorophenyl)(cyclopropyl)methyl)-2-(2,6-dioxopiperidin-3-yl)-1-oxoisoindoline-5-carboxamide]: at HiBiT tagged CK1α, the Dmax worked out at 64.7% and it took 140 nM to reach half-maximal degradation (DC50). Also, the Dmax at HiBiT tagged GSPT1 is 36.8%.

At HiBiT tagged CK1α, `Cc1cccc([C@H](NC(=O)c2ccc3c(c2)CN(C2CCC(=O)NC2=O)C3=O)C2CC2)c1` (stereo in doubt) [Compound 29, N-((*R)-cyclopropyl(m-tolyl)methyl)-2-(2,6-dioxopiperidin-3-yl)-1-oxoisoindoline-5-carboxamide] gave a Dmax of 58.8% and a DC50 of 553 nM. On HiBiT tagged GSPT1, this molecule returned a Dmax of 22%.

`O=C1CCC(N2Cc3cc(C(=O)N[C@@H](c4ccc(F)cc4)C4COC4)ccc3C2=O)C(=O)N1` (stereo in doubt) [Compound 59, 2-(2,6-dioxopiperidin-3-yl)-N-((*R)-(4-fluorophenyl)(oxetan-3-yl)methyl)-1-oxoisoindoline-5-carboxamide]: the figures for the greatest degradation seen (Dmax) on HiBiT tagged CK1α and at HiBiT tagged GSPT1 were 32.2% and 7.93%, respectively.

With `O=C1CCC(N2Cc3cc(C(=O)N[C@H](c4ccc(F)cc4)C4COC4)ccc3C2=O)C(=O)N1` (stereo in doubt) [Compound 58, 2-(2,6-dioxo-3-piperidyl)-N-[(*S)-(4-fluorophenyl)-(oxetan-3-yl)methyl]-1-oxo-isoindoline-5-carboxamide], the values for the maximal degradation (Dmax) on HiBiT tagged CK1α and at HiBiT tagged GSPT1 were 49.7% and 16.5%, respectively.

For `O=C1CCC(N2Cc3cc(C(=O)N[C@H](c4ccc(F)cc4Cl)C4CCC4)ccc3C2=O)C(=O)N1` (stereo in doubt) [Compound 73, N-((*S)-(2-chloro-4-fluorophenyl)(cyclobutyl)methyl)-2-(2,6-dioxopiperidin-3-yl)-1-oxoisoindoline-5-carboxamide], on HiBiT tagged CK1α, the greatest degradation seen (Dmax) is 71.4% and the DC50 amounted to 73.5 nM. In addition, the Dmax at HiBiT tagged GSPT1 amounted to 30.4%.

In the case of `O=C1CCC(N2Cc3cc(C(=O)N[C@H](c4ncc(F)cc4Cl)C4CCC4)ccc3C2=O)C(=O)N1` (stereo in doubt) [Compound 81, N-((*S)-(3-chloro-5-fluoropyridin-2-yl)(cyclobutyl)methyl)-2-(2,6-dioxopiperidin-3-yl)-1-oxoisoindoline-5-carboxamide], at HiBiT tagged CK1α, the Dmax stood at 62.1% and it took 153 nM to reach half-maximal degradation (DC50). Further, the Dmax on HiBiT tagged GSPT1 amounted to 18.4%.

(Values after patent publication US12673936B2, “Isoindolinone compounds, and uses thereof” (HANGZHOU GLUBIO PHARMACEUTICAL CO., LTD., priority 2021, dated 2026).)
